Test results from patent US20060173171A1, “Techniques and compositions for diagnosis and treatment of cancer (muci)” (priority 2003, published 2006).

Test system: ligands in breast tumor cell lysates
Assay: Ligand fishing from cell lysates with PSMGFR peptide on NTA-Ni beads, silver-stained gel
Format: binding, human
Procedure: In an effort to identify ligands to the MUC1 receptor, synthetic, His-var-PSMGFR peptides, […] (SEQ ID NO: 2), which is representative of the portion of the MUC1 receptor, that remains attached to the cell surface after cleavage of the interchain binding region, were loaded onto NTA-Ni beads (cat. #1000630; available from Qiagen GmbH, Germany) and incubated with cell lysates in the presence (FIG. 9) or absence (FIG. 10) of the protease inhibitor PMSF (phenyl methyl sulfonyl fluoride). Lysates from T47D cells were used because this breast tumor cell line is known to overexpress MUC1 and MUC1 ligand(s). T47D cells were cultured then sonicated for 1 minute to lyse the cells. Lysates were mixed with the PSMGFR peptide-presenting beads and incubated on ice with intermittent mixing for 1 hr. As a negative control, an irrelevant peptide, HHHHHHGEFTGTYITAVT (SEQ ID NO: 13), was attached to NTA-Ni beads and treated identically. Both sets of beads were washed 2× with phosphate buffer pH 7.4. Bound protein species were eluted by 3 additions of 100 uL of phosphate buffer that also contained 250 mM imidazole. For both the peptides, a portion of the first elution was removed and reserved to run as a separate sample, while the remainder was combined with the other 2 elutions and concentrated by TCA (tri-chloro acetic acid)-precipitation (Chen, L. et al., Anal. Biochem. Vol 269; pgs 179-188; 1999). […]

GTINVHDVETQFNQYKTEAASPYNLTISDVSVSDVPFPFSAQSGAHHHHHH [PSMGFR peptide]
protein species bound from T47D lysate (in the absence of PMSF, FIG. 10): bound distinguishably to one peptide
protein species bound from T47D lysate (in the presence of PMSF, FIG. 9): bound distinguishably to three peptides
